The record followed here is US9737542B2, “Pyrrolotriazine kinase inhibitors” (BRISTOL-MYERS SQUIBB COMPANY, priority 2013, dated 2017).

In general, IC50 refers to the concentration needed to halve the response being measured.

In this experiment the target is GST-Xa-hAAK1 (Homo sapiens (Human), UniProt Q2M2I8). Description: AAK1 Kinase Assay. The settings on record: ATP 22 μM, 3 hours at room temperature. The format is biochemical.
Chain of GST-Xa-hAAK1 (Q2M2I8 whole entry): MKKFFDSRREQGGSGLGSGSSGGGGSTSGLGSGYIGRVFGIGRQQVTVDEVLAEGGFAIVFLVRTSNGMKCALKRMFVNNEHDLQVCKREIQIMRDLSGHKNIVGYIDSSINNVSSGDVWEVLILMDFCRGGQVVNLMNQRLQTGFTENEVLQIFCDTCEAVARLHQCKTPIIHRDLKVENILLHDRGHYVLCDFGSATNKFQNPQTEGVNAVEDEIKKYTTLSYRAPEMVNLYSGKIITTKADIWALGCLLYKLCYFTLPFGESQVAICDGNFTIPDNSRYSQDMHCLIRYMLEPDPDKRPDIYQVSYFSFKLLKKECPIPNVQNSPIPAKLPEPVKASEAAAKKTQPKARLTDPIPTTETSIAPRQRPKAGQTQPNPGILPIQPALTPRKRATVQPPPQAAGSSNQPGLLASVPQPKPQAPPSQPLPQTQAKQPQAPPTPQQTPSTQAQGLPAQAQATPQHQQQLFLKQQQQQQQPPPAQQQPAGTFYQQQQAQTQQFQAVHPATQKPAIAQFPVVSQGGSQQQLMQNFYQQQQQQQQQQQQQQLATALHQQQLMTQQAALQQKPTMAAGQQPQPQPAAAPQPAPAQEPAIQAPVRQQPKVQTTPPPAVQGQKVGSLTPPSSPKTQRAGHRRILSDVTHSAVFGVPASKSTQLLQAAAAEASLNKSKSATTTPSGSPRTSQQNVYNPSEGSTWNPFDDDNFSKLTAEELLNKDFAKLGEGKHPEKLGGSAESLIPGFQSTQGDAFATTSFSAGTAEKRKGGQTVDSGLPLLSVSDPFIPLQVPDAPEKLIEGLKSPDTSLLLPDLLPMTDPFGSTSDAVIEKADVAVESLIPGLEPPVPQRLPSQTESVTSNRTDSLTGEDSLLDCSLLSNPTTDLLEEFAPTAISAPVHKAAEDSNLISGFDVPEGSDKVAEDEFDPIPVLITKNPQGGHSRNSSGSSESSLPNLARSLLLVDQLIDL

Protocol: The assays were performed in U-bottom 384-well plates. […] The reactions were initiated by the combination of bacterially expressed, GST-Xa-hAAK1 with substrates and test compounds. The reactions were incubated at room temperature for 3 hours and terminated by adding 60 μl of 35 mM EDTA buffer to each sample. The reactions were analyzed on the Caliper LabChip 3000 (Caliper, Hopkinton, Mass.) by electrophoretic separation of the fluorescent substrate and phosphorylated product. Inhibition data were calculated by comparison to EDTA quenched control reactions for 100% inhibition and vehicle-only reactions for 0% inhibition. […] Dose response curves were generated to determine the concentration required inhibiting 50% of kinase activity (IC50). Compounds were dissolved at 10 mM in dimethylsulfoxide (DMSO) and evaluated at eleven concentrations. IC50 values were derived by non-linear regression analysis.

As to `CC(C)c1nnc(-c2cccc(Nc3ncnn4ccc(CN5CC[C@@H](N)[C@H](O)C5)c34)c2)s1` [Example 48, (3R,4R)-4-amino-1-((4-((3-(5-isopropyl-1,3,4-thiadiazol-2-yl)phenyl)amino)pyrrolo[2,1-f][1,2,4]triazin-5-yl)methyl)piperidin-3-ol], under “listed as IC50 ranges”, the 50% inhibitory concentration (IC50) lay within 10 to 100 nM. Molecule `NC1CCN(Cc2ccn3ncnc(Nc4cccc(-c5noc(C6CCCC6)n5)c4)c23)CC1` [Example 73, 5-((4-aminopiperidin-1-yl)methyl)-N-(3-(5-cyclopentyl-1,2,4-oxadiazol-3-yl)phenyl)pyrrolo[2,1-f][1,2,4]triazin-4-amine] returned an IC50 of 16 nM.

Molecule `CC(C)c1nnc(-c2cccc(Nc3ncnn4ccc(CN5CC6CNCC6C5)c34)c2)s1` (centres unmarked) [Example 29, 5-((hexahydropyrrolo[3,4-c]pyrrol-2(1H)-yl)methyl)-N-(3-(5-isopropyl-1,3,4-thiadiazol-2-yl)phenyl)pyrrolo[2,1-f][1,2,4]triazin-4-amine] displayed an IC50 (listed as IC50 ranges) of 100 to 1000 nM. Still for that read-out and setting: the figure for `CC(C)n1nnc(-c2ccc(F)c(Nc3ncnn4ccc(CN5CCC(N)CC5)c34)c2)n1` [Example 50, 5-((4-aminopiperidin-1-yl)methyl)-N-(2-fluoro-5-(2-isopropyl-2H-tetrazol-5-yl)phenyl)pyrrolo[2,1-f][1,2,4]triazin-4-amine] is 100 to 1000 nM; for `CC(C)c1nc(-c2ccc(O)c(Nc3ncnn4ccc(CN5CCC(N)CC5)c34)c2)no1` [Example 3, 2-((5-((4-aminopiperidin-1-yl)methyl)pyrrolo[2,1-f][1,2,4]triazin-4-yl)amino)-4-(5-isopropyl-1,2,4-oxadiazol-3-yl)phenol] it is 10 to 100 nM. In turn, `CCOC(=O)c1ccn2ncnc(Nc3cc(O)cc(-c4nnn(C(C)C)n4)c3)c12` [Example 95, ethyl 4-((3-hydroxy-5-(2-isopropyl-2H-tetrazol-5-yl)phenyl)amino)pyrrolo[2,1-f][1,2,4]triazine-5-carboxylate] returned a half-maximal inhibitory concentration (IC50) of 2530 nM. Where the note is “listed as IC50 ranges”, `CC(C)n1nnc(-c2cc(Nc3ncnn4ccc(CN5CCC(N)CC5)c34)c3[nH]ccc3c2)n1` [Example 74, 5-((4-aminopiperidin-1-yl)methyl)-N-(5-(2-isopropyl-2H-tetrazol-5-yl)-1H-indol-7-yl)pyrrolo[2,1-f][1,2,4]triazin-4-amine] returned an IC50 of 10 to 100 nM. The molecule `CCOC(=O)c1ccn2ncnc(Nc3cccc(-c4nnn(C(C)C)n4)c3)c12` [Example 96, ethyl 4-((3-(2-isopropyl-2H-tetrazol-5-yl)phenyl)amino)pyrrolo[2,1-f][1,2,4]triazine-5-carboxylate] returned a 50% inhibitory concentration (IC50) of 624 nM. This counts as sub-micromolar. The same measure, in the same setting: in the case of `Cc1ccn2ncnc(Nc3cccc(-c4nnn(C(C)C)n4)c3)c12` [Example 88, N-(3-(2-isopropyl-2H-tetrazol-5-yl)phenyl)-5-methylpyrrolo[2,1-f][1,2,4]triazin-4-amine] it was 22 nM. Molecule `CC(C)c1nc(-c2cc(O)cc(Nc3ncnn4ccc(CN5CCC(N)CC5)c34)c2)no1` [Example 37, 3-((5-((4-aminopiperidin-1-yl)methyl)pyrrolo[2,1-f][1,2,4]triazin-4-yl)amino)-5-(5-isopropyl-1,2,4-oxadiazol-3-yl)phenol] displayed an IC50 (listed as IC50 ranges) of 1 to 10 nM. On the same count and under the same terms, in the case of `CCc1nnc(-c2cccc(Nc3ncnn4ccc(CN5CCC(N)CC5)c34)c2)[nH]1` [Example 15, 5-((4-aminopiperidin-1-yl)methyl)-N-(3-(5-ethyl-4H-1,2,4-triazol-3-yl)phenyl)pyrrolo[2,1-f][1,2,4]triazin-4-amine] it was 10 to 100 nM; in that of `CC(C)n1nnc(-c2ccc(O)c(Nc3ncnn4ccc(CN5CCC(N)CC5)c34)c2)n1` [Example 38, 2-((5-((4-aminopiperidin-1-yl)methyl)pyrrolo[2,1-f][1,2,4]triazin-4-yl)amino)-4-(2-isopropyl-2H-tetrazol-5-yl)phenol], 1 to 10 nM; in that of `CC(C)n1nnc(-c2cc(Nc3ncnn4ccc(CN5CCC(N)CC5)c34)cc(C(F)F)c2)n1` [Example 72, 5-((4-aminopiperidin-1-yl)methyl)-N-(3-(difluoromethyl)-5-(2-isopropyl-2H-tetrazol-5-yl)phenyl)pyrrolo[2,1-f][1,2,4]triazin-4-amine], 10 to 100 nM. `CC(C)c1nnc(-c2cccc(Nc3ncnn4cccc34)c2)s1` [Example 79, N-(3-(5-isopropyl-1,3,4-thiadiazol-2-yl)phenyl)pyrrolo[2,1-f][1,2,4]triazin-4-amine] returned an IC50 of 269 nM. This lies in the sub-micromolar range. In the case of `NC1CCN(Cc2ccn3ncnc(Nc4cccc(-c5nc(-c6ccccc6)no5)c4)c23)CC1` [Example 16, 5-((4-aminopiperidin-1-yl)methyl)-N-(3-(3-phenyl-1,2,4-oxadiazol-5-yl)phenyl)pyrrolo[2,1-f][1,2,4]triazin-4-amine], the IC50 (listed as IC50 ranges) lay in the range of 100 to 1000 nM. On the same count and under the same terms, the figure for `CC(C)c1nnc(-c2cccc(Nc3ncnn4ccc(CNCCCN)c34)c2)s1` [Example 69, N1-((4-((3-(5-isopropyl-1,3,4-thiadiazol-2-yl)phenyl)amino)pyrrolo[2,1-f][1,2,4]triazin-5-yl)methyl)propane-1,3-diamine] is 100 to 1000 nM. In the case of `CC(C)n1nnc(-c2cccc(Nc3ncnn4ccc(CNCC#N)c34)c2)n1` [Example 66, 2-(((4-((3-(2-isopropyl-2H-tetrazol-5-yl)phenyl)amino)pyrrolo[2,1-f][1,2,4]triazin-5-yl)methyl)amino)acetonitrile], the IC50 came to 1100 nM. With `CC(CN)CNCc1ccn2ncnc(Nc3cccc(-c4nnc(C(C)C)s4)c3)c12` (centres unmarked) [Example 70, N1-((4-((3-(5-isopropyl-1,3,4-thiadiazol-2-yl)phenyl)amino)pyrrolo[2,1-f][1,2,4]triazin-5-yl)methyl)-2-methylpropane-1,3-diamine], under “listed as IC50 ranges”, the IC50 is 100 to 1000 nM. Molecule `CNC(=O)c1ccn2ncnc(Nc3cccc(-c4nnn(C(C)C)n4)c3)c12` [Example 103, 4-((3-(2-isopropyl-2H-tetrazol-5-yl)phenyl)amino)-N-methylpyrrolo[2,1-f][1,2,4]triazine-5-carboxamide] came in with an IC50 of 26 nM.

For the molecule `CNC1CCN(Cc2ccn3ncnc(Nc4cccc(-c5noc(C(C)(C)C)n5)c4)c23)CC1` [Example 41, N-(3-(5-(tert-butyl)-1,2,4-oxadiazol-3-yl)phenyl)-5-((4-(methylamino)piperidin-1-yl)methyl)pyrrolo[2,1-f][1,2,4]triazin-4-amine], the IC50 (listed as IC50 ranges) lay within 10 to 100 nM. In the case of `Cc1ccn2ncnc(Nc3cccc(-c4noc(C(C)(C)CN)n4)c3)c12` [Example 91, N-(3-(5-(1-amino-2-methylpropan-2-yl)-1,2,4-oxadiazol-3-yl)phenyl)-5-methylpyrrolo[2,1-f][1,2,4]triazin-4-amine], 63 nM corresponded to half-maximal inhibition (IC50).

In turn, `CC(C)(CN)c1nc(-c2cccc(Nc3ncnn4cccc34)c2)no1` [Example 82, N-(3-(5-(1-amino-2-methylpropan-2-yl)-1,2,4-oxadiazol-3-yl)phenyl)pyrrolo[2,1-f][1,2,4]triazin-4-amine] showed a half-inhibitory concentration (IC50) of 67 nM. The molecule `CCC(C)(C)c1nc(-c2cccc(Nc3ncnn4ccc(CN5CCC(N)CC5)c34)c2)no1` [Example 6, 5-((4-aminopiperidin-1-yl)methyl)-N-(3-(5-(tert-pentyl)-1,2,4-oxadiazol-3-yl)phenyl)pyrrolo[2,1-f][1,2,4]triazin-4-amine] gave an IC50 (listed as IC50 ranges) of 10 to 100 nM. On to `COCCNC(=O)c1ccn2ncnc(Nc3cccc(-c4nnn(C(C)C)n4)c3)c12` [Example 108, 4-((3-(2-isopropyl-2H-tetrazol-5-yl)phenyl)amino)-N-(2-methoxyethyl)pyrrolo[2,1-f][1,2,4]triazine-5-carboxamide], for which half-maximal inhibition (IC50) required 289 nM. For the molecule `CCCc1nnc(-c2cccc(Nc3ncnn4ccc(CN5CCC(N)CC5)c34)c2)s1` [Example 21, 5-((4-aminopiperidin-1-yl)methyl)-N-(3-(5-propyl-1,3,4-thiadiazol-2-yl)phenyl)pyrrolo[2,1-f][1,2,4]triazin-4-amine], the IC50 (listed as IC50 ranges) fell in the range of 10 to 100 nM.

In turn, `CC(C)c1nc(-c2cc(Cl)cc(Nc3ncnn4ccc(CN5CCC(N)CC5)c34)c2)no1` [Example 45, 5-((4-aminopiperidin-1-yl)methyl)-N-(3-chloro-5-(5-isopropyl-1,2,4-oxadiazol-3-yl)phenyl)pyrrolo[2,1-f][1,2,4]triazin-4-amine] returned an IC50 (listed as IC50 ranges) of 10 to 100 nM. `COc1cc(Nc2ncnn3ccc(C)c23)cc(-c2noc(C(C)C)n2)c1` [Example 92, N-(3-(5-isopropyl-1,2,4-oxadiazol-3-yl)-5-methoxyphenyl)-5-methylpyrrolo[2,1-f][1,2,4]triazin-4-amine]: inhibition was half-maximal at 1170 nM (IC50).

As for `CNC1CCN(Cc2ccn3ncnc(Nc4cc(F)cc(-c5noc(C(C)C)n5)c4)c23)CC1` [Example 44, N-(3-fluoro-5-(5-isopropyl-1,2,4-oxadiazol-3-yl)phenyl)-5-((4-(methylamino)piperidin-1-yl)methyl)pyrrolo[2,1-f][1,2,4]triazin-4-amine], it took 10 nM to reach half-maximal inhibition (IC50).

For `CC(C)c1nnc(-c2cccc(Nc3ncnn4ccc(CN5CCCC(CN)C5)c34)c2)s1` (centres unmarked) [Example 71, 5-((3-(aminomethyl)piperidin-1-yl)methyl)-N-(3-(5-isopropyl-1,3,4-thiadiazol-2-yl)phenyl)pyrrolo[2,1-f][1,2,4]triazin-4-amine], the 50% inhibitory concentration (IC50) (listed as IC50 ranges) is 1000 to 5000 nM. As to `CC(C)c1nc(-c2cc(F)cc(Nc3ncnn4ccc(CN5CCC(N)CC5)c34)c2)no1` [Example 46, 5-((4-aminopiperidin-1-yl)methyl)-N-(3-fluoro-5-(5-isopropyl-1,2,4-oxadiazol-3-yl)phenyl)pyrrolo[1,2-f][1,2,4]triazin-4-amine], the concentration for half-maximal inhibition (IC50) (listed as IC50 ranges) is 10 to 100 nM.

In turn, `Cc1nc(-c2cccc(Nc3ncnn4ccc(CN5CCC(N)CC5)c34)c2)no1` [Example 13, 5-((4-aminopiperidin-1-yl)methyl)-N-(3-(5-methyl-1,2,4-oxadiazol-3-yl)phenyl)pyrrolo[2,1-f][1,2,4]triazin-4-amine] yielded an IC50 (listed as IC50 ranges) of 100 to 1000 nM. Same read-out and setting: in the case of `CC(C)n1nnc(-c2cccc(Nc3ncnn4ccc(CN5CCN(C)CC5)c34)c2)n1` [Example 54, N-(3-(2-isopropyl-2H-tetrazol-5-yl)phenyl)-5-((4-methylpiperazin-1-yl)methyl)pyrrolo[2,1-f][1,2,4]triazin-4-amine] it was 100 to 1000 nM.
